Source: publication PMC8217170, “Phase Ib dose-escalation study of the hypoxia-modifier Myo-inositol trispyrophosphate in patients with hepatopancreatobiliary tumors” (Nature Communications, 2021)

Test: Plasma levels and pharmacokinetics of intravenous ITPP

For `O=P1(O)OC2C3OP(=O)(O)OP(=O)(O)OC3C3OP(=O)(O)OP(=O)(O)OC3C2OP(=O)(O)O1` (centres unmarked) [ITPP, Myo-inositol trispyrophosphate], the Tmax (cohort 1, 1866 mg/m2) was 6.0 h, the VSS (cohort 1, 1866 mg/m2) was 11.0 L and the “ITPP plasma levels: Concentration” value (cohort 1, patient 2, day 1, hour 0, sample 1_1_1) was 0 µg/mL. For the same compound, the “ITPP plasma levels: Concentration” value (cohort 1, patient 2, day 1, hour 3, sample 1_1_2) was 71.4 µg/mL, the “ITPP plasma levels: Concentration” value (cohort 1, patient 2, day 1, hour 6, sample 1_1_3) was 64.4 µg/mL and the “ITPP plasma levels: Concentration” value (cohort 1, patient 2, day 1, hour 8.5, sample 1_1_4) was 37.7 µg/mL. The “ITPP plasma levels: Concentration” value (cohort 1, patient 2, day 1, hour 9, sample 1_1_5) was 27.2 µg/mL, the “ITPP plasma levels: Concentration” value (cohort 1, patient 2, day 2, hour 0, sample 1_2_1) was 0 µg/mL and the “ITPP plasma levels: Concentration” value (cohort 1, patient 2, day 2, hour 9, sample 1_2_5) was 31.6 µg/mL. The “ITPP plasma levels: Concentration” value (cohort 1, patient 2, day 3, hour 0, sample 1_3_1) was 0 µg/mL, the “ITPP plasma levels: Concentration” value (cohort 1, patient 2, day 3, hour 9, sample 1_3_5) was 28.7 µg/mL and the “ITPP plasma levels: Concentration” value (cohort 1, patient 4, day 2, hour 9, sample 5_2_5) was 32.7 µg/mL. For the same compound, the “ITPP plasma levels: Concentration” value (cohort 1, patient 4, day 3, hour 0, sample 5_3_1) was 0 µg/mL, the “ITPP plasma levels: Concentration” value (cohort 1, patient 4, day 3, hour 9, sample 5_3_5) was 30.4 µg/mL and the “ITPP plasma levels: Concentration” value (cohort 1, patient 4, day 4, hour 0, sample 5_4_1) was 0 µg/mL. For the same compound, the “ITPP plasma levels: Concentration” value (cohort 1, patient 4, day 4, hour 9, sample 5_4_5) was 28.7 µg/mL, the “ITPP plasma levels: Concentration” value (cohort 1, patient 4, day 5, hour 0, sample 5_5_1) was 0 µg/mL and the “ITPP plasma levels: Concentration” value (cohort 1, patient 4, day 5, hour 3, sample 5_5_2) was 33.3 µg/mL. For the same compound, the “ITPP plasma levels: Concentration” value (cohort 1, patient 4, day 5, hour 6, sample 5_5_3) was 38.4 µg/mL, the “ITPP plasma levels: Concentration” value (cohort 1, patient 4, day 5, hour 8.5, sample 5_5_4) was 40.9 µg/mL and the “ITPP plasma levels: Concentration” value (cohort 1, patient 4, day 5, hour 9, sample 5_5_5) was 29.6 µg/mL. The “ITPP plasma levels: Concentration” value (cohort 1, patient 4, day 5, hour 10, sample 5_5_6) was 22 µg/mL, the “ITPP plasma levels: Concentration” value (cohort 1, patient 4, day 6, hour 0, sample 5_6_1) was 0 µg/mL and the “ITPP plasma levels: Concentration” value (cohort 1, patient 4, day 6, hour 9, sample 5_6_5) was 32.4 µg/mL. For the same compound, the “ITPP plasma levels: Concentration” value (cohort 1, patient 4, day 7, hour 0, sample 5_7_1) was 0 µg/mL, the “ITPP plasma levels: Concentration” value (cohort 1, patient 4, day 7, hour 9, sample 5_7_5) was 36.7 µg/mL and the “ITPP plasma levels: Concentration” value (cohort 1, patient 4, day 8, hour 0, sample 5_8_1) was 0 µg/mL. The “ITPP plasma levels: Concentration” value (cohort 1, patient 4, day 8, hour 9, sample 5_8_5) was 31.5 µg/mL, the “ITPP plasma levels: Concentration” value (cohort 1, patient 4, day 9, hour 0, sample 5_9_1) was 0 µg/mL and the “ITPP plasma levels: Concentration” value (cohort 1, patient 4, day 9, hour 3, sample 5_9_2) was 38.7 µg/mL. The “ITPP plasma levels: Concentration” value (cohort 1, patient 4, day 9, hour 6, sample 5_9_3) was 43.5 µg/mL, the “ITPP plasma levels: Concentration” value (cohort 1, patient 4, day 9, hour 8.5, sample 5_9_4) was 42.1 µg/mL and the “ITPP plasma levels: Concentration” value (cohort 1, patient 4, day 9, hour 9, sample 5_9_5) was 26.1 µg/mL. For the same compound, the AUC (cohort 2, 3732 mg/m2) was 847.4 µg·h/mL, the AUMC (cohort 2, 3732 mg/m2) was 4925.6 h2*mg/L and the CL (cohort 2, 3732 mg/m2) was 3.8 L/h. For the same compound, the Clast (cohort 2, 3732 mg/m2) was 55.8 µg/mL, the Cmax (cohort 2, 3732 mg/m2) was 120.6 µg/mL and the Cmin (cohort 2, 3732 mg/m2) was 0 ng/mL. The “Elimination rate λz” value (cohort 2, 3732 mg/m2) was 0.4 h⁻¹, the “Half life/T0.5” value (cohort 2, 3732 mg/m2) was 1.8 h and the MRT (cohort 2, 3732 mg/m2) was 1.8 h. For the same compound, the Tlast (cohort 2, 3732 mg/m2) was 10.0 h, the Tmax (cohort 2, 3732 mg/m2) was 6.0 h and the VSS (cohort 2, 3732 mg/m2) was 10.5 L. The “ITPP plasma levels: Concentration” value (cohort 2, patient 5, day 1, hour 0, sample 6_1_1) was 0 µg/mL, the “ITPP plasma levels: Concentration” value (cohort 2, patient 5, day 1, hour 3, sample 6_1_2) was 81 µg/mL and the “ITPP plasma levels: Concentration” value (cohort 2, patient 5, day 1, hour 6, sample 6_1_3) was 102 µg/mL. For the same compound, the “ITPP plasma levels: Concentration” value (cohort 2, patient 5, day 1, hour 8.5, sample 6_1_4) was 86.1 µg/mL, the “ITPP plasma levels: Concentration” value (cohort 2, patient 5, day 1, hour 9, sample 6_1_5) was 66.5 µg/mL and the “ITPP plasma levels: Concentration” value (cohort 2, patient 5, day 1, hour 10, sample 6_1_6) was 42.7 µg/mL. For the same compound, the “ITPP plasma levels: Concentration” value (cohort 2, patient 5, day 2, hour 0, sample 6_2_1) was 0 µg/mL, the “ITPP plasma levels: Concentration” value (cohort 2, patient 5, day 2, hour 9, sample 6_2_5) was 78.6 µg/mL and the “ITPP plasma levels: Concentration” value (cohort 2, patient 5, day 3, hour 0, sample 6_3_1) was 0 µg/mL. For the same compound, the “ITPP plasma levels: Concentration” value (cohort 2, patient 5, day 3, hour 9, sample 6_3_5) was 61.7 µg/mL, the “ITPP plasma levels: Concentration” value (cohort 2, patient 5, day 4, hour 0, sample 6_4_1) was 0 µg/mL and the “ITPP plasma levels: Concentration” value (cohort 2, patient 5, day 4, hour 9, sample 6_4_5) was 81.8 µg/mL. For the same compound, the “ITPP plasma levels: Concentration” value (cohort 2, patient 5, day 5, hour 0, sample 6_5_1) was 0 µg/mL, the “ITPP plasma levels: Concentration” value (cohort 2, patient 5, day 5, hour 3, sample 6_5_2) was 90.1 µg/mL and the “ITPP plasma levels: Concentration” value (cohort 2, patient 5, day 5, hour 6, sample 6_5_3) was 107 µg/mL. The “ITPP plasma levels: Concentration” value (cohort 2, patient 5, day 5, hour 8.5, sample 6_5_4) was 81.8 µg/mL, the “ITPP plasma levels: Concentration” value (cohort 2, patient 5, day 5, hour 9, sample 6_5_5) was 62.8 µg/mL and the “ITPP plasma levels: Concentration” value (cohort 2, patient 5, day 5, hour 10, sample 6_5_6) was 38.5 µg/mL. The “ITPP plasma levels: Concentration” value (cohort 2, patient 5, day 6, hour 0, sample 6_6_1) was 0 µg/mL, the “ITPP plasma levels: Concentration” value (cohort 2, patient 5, day 6, hour 9, sample 6_6_5) was 76.4 µg/mL and the “ITPP plasma levels: Concentration” value (cohort 2, patient 5, day 7, hour 0, sample 6_7_1) was 0 µg/mL. The “ITPP plasma levels: Concentration” value (cohort 2, patient 5, day 7, hour 9, sample 6_7_5) was 65.9 µg/mL, the “ITPP plasma levels: Concentration” value (cohort 2, patient 5, day 8, hour 0, sample 6_8_1) was 0 µg/mL and the “ITPP plasma levels: Concentration” value (cohort 2, patient 5, day 8, hour 9, sample 6_8_5) was 73.8 µg/mL. The “ITPP plasma levels: Concentration” value (cohort 2, patient 5, day 9, hour 0, sample 6_9_1) was 0 µg/mL, the “ITPP plasma levels: Concentration” value (cohort 2, patient 5, day 9, hour 3, sample 6_9_2) was 81.2 µg/mL and the “ITPP plasma levels: Concentration” value (cohort 2, patient 5, day 9, hour 6, sample 6_9_3) was 110 µg/mL. The “ITPP plasma levels: Concentration” value (cohort 2, patient 5, day 9, hour 8.5, sample 6_9_4) was 89.6 µg/mL, the “ITPP plasma levels: Concentration” value (cohort 2, patient 5, day 9, hour 9, sample 6_9_5) was 58.7 µg/mL and the “ITPP plasma levels: Concentration” value (cohort 2, patient 6, day 1, hour 0, sample 7_1_1) was 0 µg/mL. For the same compound, the “ITPP plasma levels: Concentration” value (cohort 2, patient 6, day 1, hour 3, sample 7_1_2) was 84.8 µg/mL, the “ITPP plasma levels: Concentration” value (cohort 2, patient 6, day 1, hour 6, sample 7_1_3) was 106 µg/mL and the “ITPP plasma levels: Concentration” value (cohort 2, patient 6, day 1, hour 8.5, sample 7_1_4) was 100 µg/mL. For the same compound, the “ITPP plasma levels: Concentration” value (cohort 2, patient 6, day 1, hour 9, sample 7_1_5) was 77.7 µg/mL, the “ITPP plasma levels: Concentration” value (cohort 2, patient 6, day 1, hour 10, sample 7_1_6) was 55.2 µg/mL and the “ITPP plasma levels: Concentration” value (cohort 2, patient 6, day 2, hour 0, sample 7_2_1) was 0 µg/mL. The “ITPP plasma levels: Concentration” value (cohort 2, patient 6, day 2, hour 9, sample 7_2_5) was 66.6 µg/mL, the “ITPP plasma levels: Concentration” value (cohort 2, patient 6, day 3, hour 0, sample 7_3_1) was 0 µg/mL and the “ITPP plasma levels: Concentration” value (cohort 2, patient 6, day 3, hour 9, sample 7_3_5) was 65.2 µg/mL. For the same compound, the “ITPP plasma levels: Concentration” value (cohort 2, patient 6, day 4, hour 0, sample 7_4_1) was 0 µg/mL, the “ITPP plasma levels: Concentration” value (cohort 2, patient 6, day 4, hour 9, sample 7_4_5) was 67.1 µg/mL and the “ITPP plasma levels: Concentration” value (cohort 2, patient 6, day 5, hour 0, sample 7_5_1) was 0 µg/mL. The “ITPP plasma levels: Concentration” value (cohort 2, patient 6, day 5, hour 3, sample 7_5_2) was 78.6 µg/mL, the “ITPP plasma levels: Concentration” value (cohort 2, patient 6, day 5, hour 6, sample 7_5_3) was 98 µg/mL and the “ITPP plasma levels: Concentration” value (cohort 2, patient 6, day 5, hour 8.5, sample 7_5_4) was 82.7 µg/mL. The “ITPP plasma levels: Concentration” value (cohort 2, patient 6, day 5, hour 9, sample 7_5_5) was 41.4 µg/mL, the “ITPP plasma levels: Concentration” value (cohort 2, patient 6, day 5, hour 10, sample 7_5_6) was 40.6 µg/mL and the “ITPP plasma levels: Concentration” value (cohort 2, patient 6, day 6, hour 0, sample 7_6_1) was 0 µg/mL. The “ITPP plasma levels: Concentration” value (cohort 2, patient 6, day 6, hour 9, sample 7_6_5) was 60.1 µg/mL, the “ITPP plasma levels: Concentration” value (cohort 2, patient 6, day 7, hour 0, sample 7_7_1) was 0 µg/mL and the “ITPP plasma levels: Concentration” value (cohort 2, patient 6, day 7, hour 9, sample 7_7_5) was 72.5 µg/mL. The “ITPP plasma levels: Concentration” value (cohort 2, patient 6, day 8, hour 0, sample 7_8_1) was 0 µg/mL, the “ITPP plasma levels: Concentration” value (cohort 2, patient 6, day 8, hour 9, sample 7_8_5) was 75.7 µg/mL and the “ITPP plasma levels: Concentration” value (cohort 2, patient 6, day 9, hour 0, sample 7_9_1) was 0 µg/mL. For the same compound, the “ITPP plasma levels: Concentration” value (cohort 2, patient 6, day 9, hour 3, sample 7_9_2) was 84.2 µg/mL, the “ITPP plasma levels: Concentration” value (cohort 2, patient 6, day 9, hour 6, sample 7_9_3) was 116 µg/mL and the “ITPP plasma levels: Concentration” value (cohort 2, patient 6, day 9, hour 8.5, sample 7_9_4) was 105 µg/mL. For the same compound, the “ITPP plasma levels: Concentration” value (cohort 2, patient 6, day 9, hour 9, sample 7_9_5) was 82 µg/mL, the “ITPP plasma levels: Concentration” value (cohort 2, patient 6, day 9, hour 10, sample 7_9_6) was 60.5 µg/mL and the “ITPP plasma levels: Concentration” value (cohort 2, patient 7, day 1, hour 0, sample 8_1_1) was 0 µg/mL. For the same compound, the “ITPP plasma levels: Concentration” value (cohort 2, patient 7, day 1, hour 3, sample 8_1_2) was 81.8 µg/mL, the “ITPP plasma levels: Concentration” value (cohort 2, patient 7, day 1, hour 6, sample 8_1_3) was 117 µg/mL and the “ITPP plasma levels: Concentration” value (cohort 2, patient 7, day 1, hour 8.5, sample 8_1_4) was 100 µg/mL. The “ITPP plasma levels: Concentration” value (cohort 2, patient 7, day 1, hour 9, sample 8_1_5) was 79.1 µg/mL and the “ITPP plasma levels: Concentration” value (cohort 2, patient 7, day 1, hour 10, sample 8_1_6) was 67.7 µg/mL.
